Measurements from US20040265840A1, “Preservation of RNA quality and content in tissue sections during immunohistochemistry” (priority 2002, published 2004).

Test system: RNase activity in a processed tissue
Test: Inhibition of RNase activity in processed tissue during IHC staining
Conditions: compared to other commercially available RNase inhibitors
Method: In one embodiment of the invention, the invention provides methods that preserve or maintain RNA quality and content in an IHC sample, such as for LCM, by use of a ribonucleoside vanadyl complex (RVC) as an RNase inhibitor. […] Use of RVCs is preferred in the practice of the invention over other RNase inhibitors and allows for performance of IHC staining of samples for LCM and downstream gene expression analysis.
The immunostaining was performed on frozen, acetone fixed, sections. RVCs (Ribonucleoside Vanadyl Complexes, Sigma catalog #R3380; Berger et al. Biochemistry 1979, 18:51431; Pukas et al., Biochemistry 1982, 21:46023) at 20 mM were added to all the acts of the staining including primary antibody solution, secondary antibody solution, and rinsing solutions (phosphate buffered saline or PBS). The processing was as follows:
IHC staining was performed on frozen, acetone fixed sections. All reagent solutions were prepared with nuclease free PBS containing a RVC RNase inhibitor and kept at +4° C. The slides were removed from −80° C. storage, 30 seconds are allowed for the condensation to disappear prior to fixing. The staining procedure was done at +4° C. by keeping the slides on a cold block through all parts of the procedure: […]

- inhibition of RNase activity in a processed tissue: superior inhibition of RNase activity
Substance: Ribonucleoside Vanadyl Complexes [RVCs]
